Data: ChEMBL document CHEMBL4814033, “Unique para-aminobenzenesulfonyl oxadiazoles as novel structural potential membrane active antibacterial agents towards drug-resistant methicillin resistant Staphylococcus aureus” (2021)
In brackets after ≈: the same amount, converted by molar mass.

These compounds were tested on Staphylococcus aureus (assay: Antibacterial activity against methicillin-resistant Staphylococcus aureus by broth microdilution assay).
Type: functional
CCN(CC)CCSc1nnc(CS(=O)(=O)c2ccc(NC(C)=O)cc2)o1 gave an MIC of 32 µg/mL (≈ 77.6 µM).
Work on CCCCSc1nnc(CS(=O)(=O)c2ccc(NC(C)=O)cc2)o1 yielded an MIC of 256 µg/mL (≈ 693 µM).
CC(=O)Nc1ccc(S(=O)(=O)Cc2nnc(SCCO)o2)cc1 showed an MIC of 32 µg/mL (≈ 89.5 µM).
In the case of CC(=O)Nc1ccc(S(=O)(=O)Cc2nnc(SCCF)o2)cc1, the MIC is reported as 2 µg/mL (≈ 5.56 µM).

Each compound was assayed on Enterococcus faecalis (assay: Antibacterial activity against Enterococcus faecalis by broth microdilution assay).
Type: functional
For CCN(CC)CCSc1nnc(CS(=O)(=O)c2ccc(NC(C)=O)cc2)o1, the MIC was 64 µg/mL (≈ 155 µM).
With CCCCSc1nnc(CS(=O)(=O)c2ccc(NC(C)=O)cc2)o1 the MIC was 256 µg/mL (≈ 693 µM).
CC(=O)Nc1ccc(S(=O)(=O)Cc2nnc(SCCO)o2)cc1 gave an MIC of 32 µg/mL (≈ 89.5 µM).
Work on CC(=O)Nc1ccc(S(=O)(=O)Cc2nnc(SCCF)o2)cc1 yielded an MIC of 64 µg/mL (≈ 178 µM).

What follows are compounds tested on Staphylococcus aureus (assay: Antibacterial activity against Staphylococcus aureus by broth microdilution assay).
Type: functional
For CCN(CC)CCSc1nnc(CS(=O)(=O)c2ccc(NC(C)=O)cc2)o1, the MIC was 128 µg/mL (≈ 310 µM).
CCCCSc1nnc(CS(=O)(=O)c2ccc(NC(C)=O)cc2)o1 gave an MIC of 128 µg/mL (≈ 346 µM).
For CC(=O)Nc1ccc(S(=O)(=O)Cc2nnc(SCCO)o2)cc1, the MIC was 64 µg/mL (≈ 179 µM).
With CC(=O)Nc1ccc(S(=O)(=O)Cc2nnc(SCCF)o2)cc1 the MIC was 64 µg/mL (≈ 178 µM).

These compounds were tested on Staphylococcus aureus (assay: Antibacterial activity against Staphylococcus aureus ATCC 25923 by broth microdilution assay).
Type: functional
For CCN(CC)CCSc1nnc(CS(=O)(=O)c2ccc(NC(C)=O)cc2)o1, the MIC was 64 µg/mL (≈ 155 µM).
For CCCCSc1nnc(CS(=O)(=O)c2ccc(NC(C)=O)cc2)o1, the MIC was 256 µg/mL (≈ 693 µM).
CC(=O)Nc1ccc(S(=O)(=O)Cc2nnc(SCCO)o2)cc1 showed an MIC of 32 µg/mL (≈ 89.5 µM).
For CC(=O)Nc1ccc(S(=O)(=O)Cc2nnc(SCCF)o2)cc1, the MIC was 128 µg/mL (≈ 356 µM).

These compounds were tested on Staphylococcus aureus (assay: Antibacterial activity against Staphylococcus aureus ATCC 29213 by broth microdilution assay).
Type: functional
CCN(CC)CCSc1nnc(CS(=O)(=O)c2ccc(NC(C)=O)cc2)o1 was tested, and the MIC was 64 µg/mL (≈ 155 µM).
With CCCCSc1nnc(CS(=O)(=O)c2ccc(NC(C)=O)cc2)o1 the MIC was 256 µg/mL (≈ 693 µM).
Work on CC(=O)Nc1ccc(S(=O)(=O)Cc2nnc(SCCO)o2)cc1 yielded an MIC of 32 µg/mL (≈ 89.5 µM).
For CC(=O)Nc1ccc(S(=O)(=O)Cc2nnc(SCCF)o2)cc1, the MIC was 32 µg/mL (≈ 89 µM).

What follows are compounds tested on Klebsiella pneumoniae (assay: Antibacterial activity against Klebsiella pneumonia by broth microdilution assay).
Type: functional
CCN(CC)CCSc1nnc(CS(=O)(=O)c2ccc(NC(C)=O)cc2)o1 showed an MIC of 128 µg/mL (≈ 310 µM).
CCCCSc1nnc(CS(=O)(=O)c2ccc(NC(C)=O)cc2)o1 gave an MIC of 256 µg/mL (≈ 693 µM).
Compound CC(=O)Nc1ccc(S(=O)(=O)Cc2nnc(SCCO)o2)cc1 has an MIC of 16 µg/mL (≈ 44.8 µM).
In the case of CC(=O)Nc1ccc(S(=O)(=O)Cc2nnc(SCCF)o2)cc1, the MIC is reported as 32 µg/mL (≈ 89 µM).

The compounds below were run on Escherichia coli (assay: Antibacterial activity against Escherichia coli by broth microdilution assay).
Type: functional
CCN(CC)CCSc1nnc(CS(=O)(=O)c2ccc(NC(C)=O)cc2)o1 was tested, and the MIC was 64 µg/mL (≈ 155 µM).
In the case of CCCCSc1nnc(CS(=O)(=O)c2ccc(NC(C)=O)cc2)o1, the MIC is reported as 128 µg/mL (≈ 346 µM).
For CC(=O)Nc1ccc(S(=O)(=O)Cc2nnc(SCCO)o2)cc1, the MIC was 32 µg/mL (≈ 89.5 µM).
In the case of CC(=O)Nc1ccc(S(=O)(=O)Cc2nnc(SCCF)o2)cc1, the MIC is reported as 32 µg/mL (≈ 89 µM).

What follows are compounds tested on Escherichia coli (assay: Antibacterial activity against Escherichia coli ATCC 25922 by broth microdilution assay).
Type: functional
Compound CCN(CC)CCSc1nnc(CS(=O)(=O)c2ccc(NC(C)=O)cc2)o1 has an MIC of 128 µg/mL (≈ 310 µM).
In the case of CCCCSc1nnc(CS(=O)(=O)c2ccc(NC(C)=O)cc2)o1, the MIC is reported as 256 µg/mL (≈ 693 µM).
Work on CC(=O)Nc1ccc(S(=O)(=O)Cc2nnc(SCCO)o2)cc1 yielded an MIC of 64 µg/mL (≈ 179 µM).
CC(=O)Nc1ccc(S(=O)(=O)Cc2nnc(SCCF)o2)cc1 showed an MIC of 64 µg/mL (≈ 178 µM).

These compounds were tested on Pseudomonas aeruginosa (assay: Antibacterial activity against Pseudomonas aeruginosa by broth microdilution assay).
Type: functional
For CCN(CC)CCSc1nnc(CS(=O)(=O)c2ccc(NC(C)=O)cc2)o1, the MIC was 128 µg/mL (≈ 310 µM).
CCCCSc1nnc(CS(=O)(=O)c2ccc(NC(C)=O)cc2)o1 was tested, and the MIC was 256 µg/mL (≈ 693 µM).
Compound CC(=O)Nc1ccc(S(=O)(=O)Cc2nnc(SCCO)o2)cc1 has an MIC of 32 µg/mL (≈ 89.5 µM).
CC(=O)Nc1ccc(S(=O)(=O)Cc2nnc(SCCF)o2)cc1 showed an MIC of 64 µg/mL (≈ 178 µM).

Each compound was assayed on Pseudomonas aeruginosa (assay: Antibacterial activity against Pseudomonas aeruginosa ATCC 27853 by broth microdilution assay).
Type: functional
CCN(CC)CCSc1nnc(CS(=O)(=O)c2ccc(NC(C)=O)cc2)o1 was tested, and the MIC was 64 µg/mL (≈ 155 µM).
With CCCCSc1nnc(CS(=O)(=O)c2ccc(NC(C)=O)cc2)o1 the MIC was 256 µg/mL (≈ 693 µM).
CC(=O)Nc1ccc(S(=O)(=O)Cc2nnc(SCCO)o2)cc1 was tested, and the MIC was 128 µg/mL (≈ 358 µM).
CC(=O)Nc1ccc(S(=O)(=O)Cc2nnc(SCCF)o2)cc1 showed an MIC of 128 µg/mL (≈ 356 µM).

These compounds were tested on Acinetobacter baumannii (assay: Antibacterial activity against Acinetobacter baumannii by broth microdilution assay).
Type: functional
CCN(CC)CCSc1nnc(CS(=O)(=O)c2ccc(NC(C)=O)cc2)o1 gave an MIC of 32 µg/mL (≈ 77.6 µM).
CCCCSc1nnc(CS(=O)(=O)c2ccc(NC(C)=O)cc2)o1 gave an MIC of 256 µg/mL (≈ 693 µM).
In the case of CC(=O)Nc1ccc(S(=O)(=O)Cc2nnc(SCCO)o2)cc1, the MIC is reported as 64 µg/mL (≈ 179 µM).
CC(=O)Nc1ccc(S(=O)(=O)Cc2nnc(SCCF)o2)cc1 gave an MIC of 64 µg/mL (≈ 178 µM).

The compounds below were run on Staphylococcus aureus (assay: Potency index, ratio of MIC of norfloxacin to MIC of compound for antibacterial activity against methicillin-resistant Staphylococcus aureus by broth microdilution assay).
Type: functional
CC(=O)Nc1ccc(S(=O)(=O)Cc2nnc(SCCF)o2)cc1 showed a Ratio of 8.
